Source: patent US4570006A, “Amidine compound, process for producing same and anti-complement agent comprising same” (Torii & Co. Ltd., priority 1981, dated 1986)
Where two headings read alike, the source gives them in different places.

Legend:
Trypsin = biological target: T1, Trypsin (Bos taurus, UniProt P00760); assay: Anti-trypsin activity (inhibition of TAME hydrolysis); format: biochemical; details: read-out: ID50, trypsin
T1 sequence (P00760 24-246): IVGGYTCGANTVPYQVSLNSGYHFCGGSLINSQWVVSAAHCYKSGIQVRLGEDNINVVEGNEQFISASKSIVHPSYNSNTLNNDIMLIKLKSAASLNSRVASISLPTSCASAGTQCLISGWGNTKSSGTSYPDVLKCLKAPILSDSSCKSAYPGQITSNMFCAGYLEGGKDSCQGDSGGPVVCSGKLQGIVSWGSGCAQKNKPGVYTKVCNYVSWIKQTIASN
Procedure: (§1) The anti-trypsin, anti-plasmin, anti-kallikrein and anti-thrombin activities were determined according to the method of Muramatsu et al. [M. Muramatsu, T. Onishi, S. Makino, Y. Hayashi and S. Fujii, J. of Biochem., 58, 214 (1965)]. The data summarized in Table 1 are expressed in terms of molar concentration (ID50) of the test compound which inhibits 50% of the activity of each enzyme to hydrolyze TAME (tosylarginine methyl ester). The compound No. corresponds to the compound number shown in Examples.

Plasmin = Plasmin (Homo sapiens, UniProt P00747); assay: Anti-plasmin activity (inhibition of TAME hydrolysis); format: biochemical; details: read-out: ID50, plasmin
Procedure: as §1

Kallikrein = assay: Anti-kallikrein activity (inhibition of TAME hydrolysis); format: biochemical; details: read-out: ID50, kallikrein
Procedure: as §1

Thrombin = Thrombin (Homo sapiens, UniProt P00734); assay: biochemical; details: read-out: ID50, thrombin
Clr = biological target: T2, Clr (Homo sapiens, UniProt P00736); assay: Anti-Cl esterase activity, Clr (AAME hydrolysis); format: biochemical; details: hydrolysis of AAME; read-out: Anti-Cl activity, Clr (ID50)
T2 sequence (P00736 464-705 limits assumed): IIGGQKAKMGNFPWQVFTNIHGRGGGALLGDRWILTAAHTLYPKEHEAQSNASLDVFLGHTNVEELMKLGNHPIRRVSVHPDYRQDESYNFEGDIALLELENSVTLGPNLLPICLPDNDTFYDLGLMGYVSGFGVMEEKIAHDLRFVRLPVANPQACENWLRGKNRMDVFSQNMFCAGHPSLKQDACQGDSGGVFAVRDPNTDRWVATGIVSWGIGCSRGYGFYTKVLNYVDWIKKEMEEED
T2 sequence (P00736 18-463 limits assumed): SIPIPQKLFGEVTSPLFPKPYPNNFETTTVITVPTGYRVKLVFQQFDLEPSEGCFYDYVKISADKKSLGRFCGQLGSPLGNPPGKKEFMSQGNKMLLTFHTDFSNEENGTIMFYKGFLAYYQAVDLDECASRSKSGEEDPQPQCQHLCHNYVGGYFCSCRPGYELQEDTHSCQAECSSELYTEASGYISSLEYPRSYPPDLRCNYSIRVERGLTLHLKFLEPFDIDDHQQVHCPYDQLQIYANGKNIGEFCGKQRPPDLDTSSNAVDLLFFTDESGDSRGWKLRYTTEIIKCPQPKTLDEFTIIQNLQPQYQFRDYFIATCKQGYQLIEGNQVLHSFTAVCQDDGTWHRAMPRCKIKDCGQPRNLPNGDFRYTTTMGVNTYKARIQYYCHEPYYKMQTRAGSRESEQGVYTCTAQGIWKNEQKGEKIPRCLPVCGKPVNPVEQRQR
Procedure: The anti-Cl esterase ([…]) activity was determined according to the method of Okamura et al. [K. Okamura, M. Muramatsu and B. Fujii, Biochem. Biophys.

Cls = biological target: T3, Cls (Homo sapiens, UniProt P09871); assay: Anti-Cl esterase activity, Cls (ATEE hydrolysis); format: biochemical; details: hydrolysis of ATEE; read-out: Anti-Cl activity, Cls (50% inhibition)
T3 sequence (P09871 438-688 limits assumed): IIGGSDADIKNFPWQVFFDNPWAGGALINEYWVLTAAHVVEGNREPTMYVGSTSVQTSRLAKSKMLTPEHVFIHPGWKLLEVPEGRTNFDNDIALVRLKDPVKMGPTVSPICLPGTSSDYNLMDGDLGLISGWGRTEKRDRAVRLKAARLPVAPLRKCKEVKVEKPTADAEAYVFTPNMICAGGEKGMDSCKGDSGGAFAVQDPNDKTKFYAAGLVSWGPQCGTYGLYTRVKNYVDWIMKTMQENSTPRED
T3 sequence (P09871 16-437 limits assumed): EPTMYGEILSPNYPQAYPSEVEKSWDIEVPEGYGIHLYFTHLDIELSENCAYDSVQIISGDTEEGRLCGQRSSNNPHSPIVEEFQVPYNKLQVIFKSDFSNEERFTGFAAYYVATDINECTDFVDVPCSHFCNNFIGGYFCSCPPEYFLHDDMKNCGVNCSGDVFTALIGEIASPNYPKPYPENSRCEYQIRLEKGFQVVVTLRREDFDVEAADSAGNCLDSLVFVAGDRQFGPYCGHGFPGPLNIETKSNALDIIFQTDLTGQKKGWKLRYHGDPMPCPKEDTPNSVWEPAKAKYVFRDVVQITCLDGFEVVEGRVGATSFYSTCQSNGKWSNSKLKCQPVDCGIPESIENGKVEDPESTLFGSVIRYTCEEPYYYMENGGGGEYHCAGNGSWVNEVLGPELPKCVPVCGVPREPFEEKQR
Procedure: The anti-Cl esterase (Clr, Cls) activity was determined according to the method of Okamura et al. [K. Okamura, M. Muramatsu and B. Fujii, Biochem. Biophys. […] The figures in Table 2 have the following meanings:
Cls: Molar concentration of the test compound which inhibits 50% of the ability of Cls to hydrolyse ATEE (acetyltyrosin ethyl ester).

complement = assay: Inhibition of complement mediated hemolysis; format: cell-based

Plasmin, sequence (P00747 581-810 limits assumed, species assumed): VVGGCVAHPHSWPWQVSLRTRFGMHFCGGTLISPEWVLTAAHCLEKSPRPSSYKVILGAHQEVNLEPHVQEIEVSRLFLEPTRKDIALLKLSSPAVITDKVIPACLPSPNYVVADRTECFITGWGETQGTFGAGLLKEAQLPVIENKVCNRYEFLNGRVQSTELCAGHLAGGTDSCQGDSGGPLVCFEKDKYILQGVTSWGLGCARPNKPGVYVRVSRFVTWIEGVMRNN
Plasmin, sequence (P00747 97-580 limits assumed, species assumed): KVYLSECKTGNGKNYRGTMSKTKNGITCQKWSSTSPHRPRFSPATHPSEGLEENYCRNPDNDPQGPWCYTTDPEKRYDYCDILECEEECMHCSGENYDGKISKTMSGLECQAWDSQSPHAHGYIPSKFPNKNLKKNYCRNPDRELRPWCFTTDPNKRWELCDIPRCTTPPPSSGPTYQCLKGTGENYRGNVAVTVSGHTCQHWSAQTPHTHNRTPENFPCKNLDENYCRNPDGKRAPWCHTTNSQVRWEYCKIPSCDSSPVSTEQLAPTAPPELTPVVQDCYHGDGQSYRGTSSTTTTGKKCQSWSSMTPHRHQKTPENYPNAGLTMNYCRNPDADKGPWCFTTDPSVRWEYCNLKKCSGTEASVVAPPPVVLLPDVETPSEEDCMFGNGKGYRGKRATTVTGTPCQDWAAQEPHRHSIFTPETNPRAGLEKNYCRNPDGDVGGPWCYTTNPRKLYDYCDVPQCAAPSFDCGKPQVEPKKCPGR

Row | Compound | IC50 (Trypsin) [nM] | IC50 (Plasmin) [nM] | IC50 (Kallikrein) [nM] | IC50 (Thrombin; TAME hydrolysis) [nM] | IC50 (Clr) [nM] | IC50 (Cls) [nM] | IC50 (Thrombin) [nM] | Inhibition of complement mediated hemolysis (%) (complement; compound at 1 × 10^-4) | Inhibition of complement mediated hemolysis (%) (complement; compound at 1 × 10^-5) | Inhibition of complement mediated hemolysis (%) (complement; compound at 1 × 10^-6) | Inhibition of complement mediated hemolysis (%) (complement; compound at 1 × 10^-7)
1 | CC=CC=CC(=O)Oc1ccc(C(=N)N)cc1C(=O)OC [Compound 5] | 700 | 300 | 1000 | 2000 | 5000 | 900 | – | 100 | 97.0 | 47.2 | 3.0
2 | N=C(N)c1ccc(OC(=O)c2ccccc2)c(C(=O)O)c1 [Compound 24, 4-amidino-2-carboxyphenyl benzoate] | 3000 | > 10000 | > 10000 | 4000 | > 10000 | 2000 | – | 88.2 | 29.1 | 11.0 | 16.7
3 | N=C(N)c1ccc(OC(=O)c2ccc(CN)cc2)c([N+](=O)[O-])c1 [Compound 62] | 500 | 3000 | 2000 | 500000 | 500 | 600 | – | 100 | 100 | 100 | 95.4
4 | N=C(N)c1ccc(OC(=O)c2ccc(OCc3ccccc3)cc2)c(C(=O)c2ccccc2)c1 [Compound 45, 4-amidino-2-benzoylphenyl 4-benzyloxybenzoate] | 20 | 300 | 400 | 200 | 900 | 400 | – | 0 | 90.2 | 6.0 | 0
5 | Cc1cc(OC(=O)c2ccccc2)ccc1C(=N)N [Compound 22, 4-amidino-3-methylphenyl benzoate] | > 10000 | > 10000 | > 10000 | 2000 | 6000 | > 10000 | – | 22.8 | 0 | 0 | 0
6 | N=C(N)c1ccc(OC(=O)c2ccccc2)c(NC(=O)c2ccccc2)c1 [Compound 30, 4-amidino-2-benzoylaminophenyl benzoate] | 300 | 400 | 200 | 30 | 900 | 300 | – | 100 | 100 | 99.0 | 45.3
7 | CC(C)(C)c1ccc(C(=O)Oc2ccc(C(=N)N)cc2C(=O)c2ccccc2)cc1 [Compound 39] | 10 | 200 | 400 | 200 | 400 | 200 | – | 0 | 95.4 | 96.8 | 52.1
8 | COC(=O)c1cc(C(=N)N)ccc1OC(=O)c1ccc(CNC(=O)OCc2ccccc2)cc1 [Compound 59] | 500 | 70 | 700 | 4000 | 2000 | 300 | – | 100 | 100 | 76.0 | 15.6
9 | COc1cc(C(=N)N)ccc1OC(=O)c1ccc(NC(=N)N)cc1 [Compound 71] | 40 | 2000 | 30000 | 2000 | 4000 | 700 | – | 90.6 | 35.3 | 2.7 | 9.0

Continued, in another order:

Row | IC50 (Trypsin) [nM] | IC50 (Plasmin) [nM] | IC50 (Kallikrein) [nM] | IC50 (Thrombin; TAME hydrolysis) [nM] | IC50 (Clr) [nM] | IC50 (Cls) [nM] | IC50 (Thrombin) [nM] | Compound | Inhibition of complement mediated hemolysis (%) (complement; compound at 1 × 10^-4) | Inhibition of complement mediated hemolysis (%) (complement; compound at 1 × 10^-5) | Inhibition of complement mediated hemolysis (%) (complement; compound at 1 × 10^-6) | Inhibition of complement mediated hemolysis (%) (complement; compound at 1 × 10^-7)
10 | > 10000 | > 10000 | > 10000 | > 10000 | > 10000 | > 10000 | – | COc1cc(C(=N)N)ccc1OC(=O)[C@H]1CC[C@H](CN)CC1 [Compound 17] | 98.6 | 78.2 | 20.4 | 0
11 | 10000 | 7000 | > 10000 | 3000 | > 10000 | 3000 | – | N=C(N)c1ccc(OC(=O)c2ccccc2)c(S(=O)(=O)O)c1 [Compound 28, 5-amidino-2-benzoyloxybenzenesulfonic acid] | 79.1 | 25.0 | 22.8 | 23.8
12 | 4000 | 4000 | > 10000 | – | 3000 | 3000 | 3000 | N=C(N)c1ccc(OC(=O)C=Cc2ccccc2)c([N+](=O)[O-])c1 [Compound 34] | 99.6 | 96.7 | 53.7 | 12.4
13 | 200 | 400 | 300 | 80 | 1000 | 300 | – | CC=CC=CC(=O)Oc1ccc(C(=N)N)cc1C(=O)c1ccccc1 [Compound 6] | 100 | 97.7 | 52.9 | 5.0
14 | 3000 | 500 | 1000 | 4000 | > 10000 | 2000 | – | COC(=O)c1cc(C(=N)N)ccc1OC(=O)[C@H]1CC[C@H](CNC(=O)OCc2ccccc2)CC1 [Compound 18, 4-amidino-2-methoxycarbonylphenyl trans-4-benzyloxycarbonylaminomethylcyclohexanecarboxylate] | 98.8 | 73.2 | 11.4 | 2.2
